Test results taken from PubChem BioAssay (NCI).
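Cells were grown in 96-well plates and exposed to each compound for 48 hours at five concentrations; endpoints were interpolated linearly between bracketing concentrations, or set to the highest concentration if not reached. GI50: concentration for 50% inhibition of growth. TGI: total growth inhibition.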

Experiments:
Assay in all cases: growth of human tumour cells (NCI), 48 h
A549 NSCLC = tested on: A549 NSCLC
SW-620 colon = tested on: SW-620 colon
KM12 colon = tested on: KM12 colon
HCC-2998 colon = tested on: HCC-2998 colon
TK-10 renal = tested on: TK-10 renal
HCT-15 colon = tested on: HCT-15 colon
OVCAR-4 ovarian = tested on: OVCAR-4 ovarian
SK-MEL-28 melanoma = tested on: SK-MEL-28 melanoma
HT29 colon = tested on: HT29 colon
UACC-62 melanoma = tested on: UACC-62 melanoma
U251 CNS = tested on: U251 CNS
IGROV1 ovarian = tested on: IGROV1 ovarian
SNB-75 CNS = tested on: SNB-75 CNS
SK-MEL-2 melanoma = tested on: SK-MEL-2 melanoma
HOP-92 NSCLC = tested on: HOP-92 NSCLC
HCT-116 colon = tested on: HCT-116 colon
ACHN renal = tested on: ACHN renal
SF-268 CNS = tested on: SF-268 CNS
CAKI-1 renal = tested on: CAKI-1 renal
KM20L2 colon = tested on: KM20L2 colon
OVCAR-8 ovarian = tested on: OVCAR-8 ovarian
LOX IMVI melanoma = tested on: LOX IMVI melanoma
COLO 205 colon = tested on: COLO 205 colon
SF-539 CNS = tested on: SF-539 CNS
RXF 393 renal = tested on: RXF 393 renal
SR leukemia = tested on: SR leukemia
HOP-62 NSCLC = tested on: HOP-62 NSCLC
NCI-H23 lung = tested on: NCI-H23 lung
MALME-3M melanoma = tested on: MALME-3M melanoma
OVCAR-5 ovarian = tested on: OVCAR-5 ovarian
M14 melanoma = tested on: M14 melanoma
HL-60(TB) leukemia = tested on: HL-60(TB) leukemia
UO-31 renal = tested on: UO-31 renal
SK-OV-3 ovarian = tested on: SK-OV-3 ovarian
SF-295 CNS = tested on: SF-295 CNS
NCI-H522 lung = tested on: NCI-H522 lung
SNB-19 CNS = tested on: SNB-19 CNS
K-562 leukemia = tested on: K-562 leukemia
SK-MEL-5 melanoma = tested on: SK-MEL-5 melanoma
MOLT-4 leukemia = tested on: MOLT-4 leukemia
OVCAR-3 ovarian = tested on: OVCAR-3 ovarian
UACC-257 melanoma = tested on: UACC-257 melanoma
HS 578T breast = tested on: HS 578T breast
786-0 renal = tested on: 786-0 renal
DU-145 prostate = tested on: DU-145 prostate
MDA-MB-435 = tested on: MDA-MB-435
BT-549 breast = tested on: BT-549 breast
PC-3 prostate = tested on: PC-3 prostate
MDA-N = tested on: MDA-N
EKVX NSCLC = tested on: EKVX NSCLC
NCI-H460 lung = tested on: NCI-H460 lung
MCF7 breast = tested on: MCF7 breast
MDA-MB-231 breast = tested on: MDA-MB-231 breast
A498 renal = tested on: A498 renal
RPMI-8226 leukemia = tested on: RPMI-8226 leukemia
CCRF-CEM leukemia = tested on: CCRF-CEM leukemia
SN12C renal = tested on: SN12C renal
NCI-H226 lung = tested on: NCI-H226 lung
NCI/ADR-RES ovarian = tested on: NCI/ADR-RES ovarian
T-47D breast = tested on: T-47D breast

O=C(N/N=C/c1cc(Cl)cc(Cl)c1[O-])c1ccccc1O.O=C(N/N=C/c1cc(Cl)cc(Cl)c1[O-])c1ccccc1O.[Cu+2]
GI50 (A549 NSCLC): 0.385 µM | TGI (A549 NSCLC): 1.65 µM | TGI (SW-620 colon): 1.97 µM | GI50 (KM12 colon): 0.442 µM | TGI (KM12 colon): 1.59 µM | TGI (HCC-2998 colon): 1.46 µM | TGI (TK-10 renal): 1.65 µM | TGI (HCT-15 colon): 1.61 µM | TGI (OVCAR-4 ovarian): 0.637 µM | TGI (SK-MEL-28 melanoma): 8.79 µM | TGI (HT29 colon): 2.06 µM | TGI (UACC-62 melanoma): 0.819 µM | TGI (U251 CNS): 1.34 µM | TGI (IGROV1 ovarian): 1.16 µM | TGI (SNB-75 CNS): 2.13 µM | GI50 (SK-MEL-2 melanoma): 0.746 µM | TGI (SK-MEL-2 melanoma): 2.1 µM | GI50 (HOP-92 NSCLC): 0.224 µM | TGI (HOP-92 NSCLC): 0.671 µM | GI50 (HCT-116 colon): 0.255 µM | TGI (HCT-116 colon): 0.597 µM | TGI (ACHN renal): 1.57 µM | TGI (SF-268 CNS): 1.61 µM | TGI (CAKI-1 renal): 1.13 µM | GI50 (KM20L2 colon): 0.909 µM | TGI (KM20L2 colon): 2.28 µM | TGI (OVCAR-8 ovarian): 1.08 µM | TGI (LOX IMVI melanoma): 1.46 µM | GI50 (COLO 205 colon): 0.186 µM | TGI (COLO 205 colon): 0.348 µM | GI50 (SF-539 CNS): 0.306 µM | TGI (SF-539 CNS): 1.02 µM | TGI (RXF 393 renal): 0.766 µM | TGI (SR leukemia): 0.511 µM | TGI (HOP-62 NSCLC): 0.901 µM | GI50 (NCI-H23 lung): 0.436 µM | TGI (NCI-H23 lung): 1.66 µM | GI50 (MALME-3M melanoma): 0.367 µM | TGI (MALME-3M melanoma): 1.38 µM | TGI (OVCAR-5 ovarian): 1.92 µM | TGI (M14 melanoma): 0.964 µM | TGI (HL-60(TB) leukemia): 0.512 µM | TGI (UO-31 renal): 1.41 µM | TGI (SK-OV-3 ovarian): 1.38 µM | TGI (SF-295 CNS): 1.26 µM | TGI (NCI-H522 lung): 0.568 µM | TGI (SNB-19 CNS): 2.05 µM | TGI (K-562 leukemia): 0.545 µM | TGI (SK-MEL-5 melanoma): 0.966 µM | GI50 (MOLT-4 leukemia): 0.285 µM | TGI (MOLT-4 leukemia): 2.12 µM | TGI (OVCAR-3 ovarian): 0.778 µM | TGI (UACC-257 melanoma): 0.914 µM

O=c1[nH]c(Br)nc2n[nH]nc12
TGI (A549 NSCLC): > 100 µM | TGI (SW-620 colon): > 100 µM | TGI (KM12 colon): > 100 µM | TGI (HCC-2998 colon): > 100 µM | TGI (TK-10 renal): > 100 µM | TGI (HCT-15 colon): > 100 µM | TGI (OVCAR-4 ovarian): > 100 µM | TGI (HS 578T breast): > 100 µM | TGI (786-0 renal): > 100 µM | TGI (DU-145 prostate): > 100 µM | TGI (MDA-MB-435): > 100 µM | TGI (BT-549 breast): > 100 µM | TGI (HT29 colon): > 100 µM | TGI (PC-3 prostate): > 100 µM | TGI (UACC-62 melanoma): > 100 µM | TGI (U251 CNS): > 100 µM | TGI (IGROV1 ovarian): > 100 µM | TGI (SNB-75 CNS): > 100 µM | TGI (SK-MEL-2 melanoma): > 100 µM | TGI (MDA-N): > 100 µM | TGI (HOP-92 NSCLC): > 100 µM | TGI (EKVX NSCLC): > 100 µM | TGI (NCI-H460 lung): > 100 µM | TGI (MCF7 breast): > 100 µM | TGI (HCT-116 colon): > 100 µM | TGI (ACHN renal): > 100 µM | TGI (SF-268 CNS): > 100 µM | TGI (MDA-MB-231 breast): > 100 µM | TGI (CAKI-1 renal): > 100 µM | TGI (A498 renal): > 100 µM | TGI (RPMI-8226 leukemia): > 100 µM | TGI (OVCAR-8 ovarian): > 100 µM | TGI (LOX IMVI melanoma): > 100 µM | TGI (CCRF-CEM leukemia): > 100 µM | TGI (COLO 205 colon): > 100 µM | TGI (SF-539 CNS): 94.9 µM | TGI (RXF 393 renal): > 100 µM | TGI (SR leukemia): > 100 µM | TGI (HOP-62 NSCLC): 94.8 µM | TGI (NCI-H23 lung): > 100 µM | TGI (SN12C renal): > 100 µM | TGI (NCI-H226 lung): > 100 µM | TGI (MALME-3M melanoma): > 100 µM | TGI (OVCAR-5 ovarian): > 100 µM | TGI (M14 melanoma): > 100 µM | TGI (HL-60(TB) leukemia): > 100 µM | TGI (UO-31 renal): > 100 µM | TGI (NCI/ADR-RES ovarian): > 100 µM | TGI (SK-OV-3 ovarian): > 100 µM | TGI (SF-295 CNS): > 100 µM | TGI (NCI-H522 lung): > 100 µM | TGI (SNB-19 CNS): > 100 µM | TGI (K-562 leukemia): > 100 µM | TGI (SK-MEL-5 melanoma): > 100 µM | TGI (MOLT-4 leukemia): 44.3 µM | TGI (OVCAR-3 ovarian): > 100 µM | TGI (UACC-257 melanoma): > 100 µM | TGI (T-47D breast): > 100 µM
